The target in the assay is T1, human Src kinase (Homo sapiens, UniProt P12931).
T1 construct: full length recombinant human Src kinase (from Upstate Biotechnology, cat. no. 14-117); purchased Upstate Biotechnology 14-117; host or cells: baculovirus-infected cells ('baculo viral cells')
Put plainly: Src inhibition assay (radioactivity-based assay A or spectrophotometric assay B). The format is biochemical. From the text:
The compounds of this invention can be evaluated as inhibitors of human Src kinase using either a radioactivity-based assay or spectrophotometric assay.
The compounds can be assayed as inhibitors of full length recombinant human Src kinase (from Upstate Biotechnology, cat. no. 14-117) expressed and purified from baculo viral cells. Src kinase activity is monitored by following the incorporation of ^33P from ATP into the tyrosine of a random poly Glu-Tyr polymer substrate of composition, Glu:Tyr=4:1 (Sigma, cat. no. P-0275). The following are the final concentrations of the assay components: 0.05 M HEPES, pH 7.6, 10 mM MgCl2, 2 mM DTT, 0.25 mg/ml BSA, 10 μM ATP (1-2 μCi ^33P-ATP per reaction), 5 mg/ml poly Glu-Tyr, and 1-2 units of recombinant human Src kinase. In a typical assay, all the reaction components with the exception of ATP are pre-mixed and aliquoted into assay plate wells. […] The plates are sealed and the amount of radioactivity associated with the filters is quantified on a TopCount scintillation counter. The radioactivity incorporated is plotted as a function of the inhibitor concentration. […]
In a typical assay, all the reaction components with the exception of ATP are pre-mixed and aliquoted into assay plate wells. […] The absorbance change at 340 nm with time, the rate of the reaction, is monitored on a molecular devices plate reader. […]

SMILES strings stand for the structures. Where only a bound is given, the exact number is not on record here.

T1 sequence (P12931 whole entry): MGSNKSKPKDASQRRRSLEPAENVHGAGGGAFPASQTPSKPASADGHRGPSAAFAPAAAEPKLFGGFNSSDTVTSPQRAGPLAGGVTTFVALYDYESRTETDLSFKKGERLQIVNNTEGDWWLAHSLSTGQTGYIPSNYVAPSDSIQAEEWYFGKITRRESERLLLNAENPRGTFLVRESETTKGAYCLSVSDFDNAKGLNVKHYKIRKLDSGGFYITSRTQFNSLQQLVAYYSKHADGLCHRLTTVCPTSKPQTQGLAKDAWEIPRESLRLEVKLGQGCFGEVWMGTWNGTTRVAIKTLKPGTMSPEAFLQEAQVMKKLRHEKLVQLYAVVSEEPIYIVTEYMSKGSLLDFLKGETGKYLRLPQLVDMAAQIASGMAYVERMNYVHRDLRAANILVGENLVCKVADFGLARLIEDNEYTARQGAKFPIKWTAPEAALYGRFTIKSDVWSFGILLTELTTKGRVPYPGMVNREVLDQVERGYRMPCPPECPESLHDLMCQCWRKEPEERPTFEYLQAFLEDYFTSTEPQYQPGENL

The term Ki denotes the equilibrium dissociation constant of an inhibitor or competing ligand from its target. Take `Cc1nc(-c2cccs2)sc1-c1ccnc(Nc2ccc(S(N)(=O)=O)cc2)n1` [IIc-22]: the inhibition constant (Ki) was less than 100 nM.

For the origin of these results see patent US7361665B2, “Inhibitors of c-Jun N-terminal kinases (JNK) and other protein kinases” (Vertex Pharmaceuticals Incorporated, priority 2002, dated 2008).
